In Sander's compilation of Henry's law constants (doi:10.5985/jec.7.81):

Assay: Henry solubility constant Hcp at 298.15 K (mol/(m3 Pa))
Settings: reference: Kondoh and Nakajima (1997)

SMILES	Henry solubility constant Hcp
CC(C)(Cl)Cl [2,2-dichloropropane]	0.00071
ClC=C(Cl)Cl [trichloroethene]	0.0011
c1ccc2ccccc2c1 [naphthalene]	0.017
CCc1ccccc1 [ethylbenzene]	0.0014
CC(Cl)(Cl)Cl [1,1,1-trichloroethane]	0.00067
ClCCCCl [1,3-dichloropropane]	0.011
C=C(Cl)Cl [1,1-dichloroethene]	0.00046
BrCBr [dibromomethane]	0.012
Brc1ccccc1 [bromobenzene]	0.0049
ClCC(Br)CBr (centres undefined) [1,2-dibromo-3-chloropropane]	0.5
Clc1cccc(Cl)c1Cl [1,2,3-trichlorobenzene]	0.015
Cl/C=C\CCl [cis-1,3-dichloropropene]	0.0063
BrC(Br)Br [tribromomethane]	0.014
CCC(C)c1ccccc1 (centres undefined) [(1-methylpropyl)-benzene]	0.00075
ClCBr [bromochloromethane]	0.0078
ClC(Cl)Br [bromodichloromethane]	0.0054
CCCCc1ccccc1 [butylbenzene]	0.00091
Cc1ccc(C)cc1 [1,4-dimethylbenzene]	0.0015
CCCc1ccccc1 [propylbenzene]	0.0011
Clc1ccccc1 [chlorobenzene]	0.003
Cc1ccc(C(C)C)cc1 [1-methyl-4-(1-methylethyl)-benzene]	0.001
Clc1cccc(Cl)c1 [1,3-dichlorobenzene]	0.0038

SMILES	Henry solubility constant Hcp
CC=C(Cl)Cl [1,1-dichloropropene]	0.00054
c1ccccc1 [benzene]	0.0018
Cc1ccc(C)c(C)c1 [1,2,4-trimethylbenzene]	0.0023
CC(C)c1ccccc1 [(2-propyl)-benzene]	0.001
Cc1ccccc1C [1,2-dimethylbenzene]	0.0019
Cc1cc(C)cc(C)c1 [1,3,5-trimethylbenzene]	0.0015
Cc1ccc(Cl)cc1 [1-chloro-4-methylbenzene]	0.0029
Cc1ccccc1 [methylbenzene]	0.0017
ClC(Br)Br [dibromochloromethane]	0.0098
ClCC(Cl)Cl [1,1,2-trichloroethane]	0.011
ClC(Cl)(Cl)Cl [tetrachloromethane]	0.00044
ClC(Cl)=C(Cl)C(Cl)=C(Cl)Cl [hexachlorobutadiene]	0.0007
ClCCl [dichloromethane]	0.0037
Clc1ccc(Cl)cc1 [1,4-dichlorobenzene]	0.0047
ClCC(Cl)(Cl)Cl [1,1,1,2-tetrachloroethane]	0.0043
Cl/C=C/CCl [trans-1,3-dichloropropene]	0.01
CC(C)(C)c1ccccc1 [(1,1-dimethylethyl)-benzene]	0.00094
C=Cc1ccccc1 [ethenylbenzene]	0.0038
Cc1cccc(C)c1 [1,3-dimethylbenzene]	0.0015
CC(Cl)CCl (centres undefined) [1,2-dichloropropane]	0.0043
ClC(Cl)=C(Cl)Cl [tetrachloroethene]	0.00069
ClCC(Cl)CCl [1,2,3-trichloropropane]	0.028
